# Reference: PMC9293210, “Molecular Recognition of Natural and Non‐Natural Substrates by Cellodextrin Phosphorylase from Ruminiclostridium Thermocellum Investigated by NMR Spectroscopy” (Chemistry (Weinheim an Der Bergstrasse, Germany), 2021)
# How the values were obtained:
# [1] = molecular target: T1, cellodextrin phosphorylase (CDP) (Acetivibrio thermocellus, UniProt Q93HT8); assay: STD NMR titration (STD-AF of H4beta, […] s saturation); assay type: binding; settings: [D11]Tris 25 mM pH 7.4, NaCl 100 mM; no phosphate; apparent
# T1 construct: gene cdp-ym4; 1009 amino acids, 114 kDa per monomer, homodimer
# T1 sequence (Q93HT8 1-984): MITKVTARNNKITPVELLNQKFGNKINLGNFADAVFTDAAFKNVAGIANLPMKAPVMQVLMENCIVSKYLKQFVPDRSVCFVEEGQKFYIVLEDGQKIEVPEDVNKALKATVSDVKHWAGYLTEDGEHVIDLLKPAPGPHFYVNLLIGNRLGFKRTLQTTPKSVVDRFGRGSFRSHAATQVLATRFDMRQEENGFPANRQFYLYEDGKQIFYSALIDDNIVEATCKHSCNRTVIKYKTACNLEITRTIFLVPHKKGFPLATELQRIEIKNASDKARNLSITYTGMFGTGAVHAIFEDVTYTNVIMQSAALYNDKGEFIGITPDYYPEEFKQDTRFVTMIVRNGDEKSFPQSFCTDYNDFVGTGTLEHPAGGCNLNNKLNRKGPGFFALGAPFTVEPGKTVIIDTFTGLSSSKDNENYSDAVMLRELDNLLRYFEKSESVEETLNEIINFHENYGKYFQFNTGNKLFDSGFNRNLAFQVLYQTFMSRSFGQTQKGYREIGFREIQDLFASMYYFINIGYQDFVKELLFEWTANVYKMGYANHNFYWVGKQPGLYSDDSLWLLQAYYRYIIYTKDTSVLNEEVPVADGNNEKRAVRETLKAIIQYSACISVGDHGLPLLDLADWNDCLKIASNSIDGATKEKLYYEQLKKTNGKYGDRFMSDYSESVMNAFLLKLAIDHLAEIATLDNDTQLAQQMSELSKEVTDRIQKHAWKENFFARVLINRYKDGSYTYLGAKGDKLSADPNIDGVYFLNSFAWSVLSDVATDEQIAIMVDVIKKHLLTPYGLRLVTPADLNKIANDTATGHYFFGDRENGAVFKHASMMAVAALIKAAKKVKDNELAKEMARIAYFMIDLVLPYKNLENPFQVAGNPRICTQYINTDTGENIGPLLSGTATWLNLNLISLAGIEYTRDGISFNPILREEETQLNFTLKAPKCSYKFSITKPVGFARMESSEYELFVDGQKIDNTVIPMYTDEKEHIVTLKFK
# [2] = molecular target: T1, cellodextrin phosphorylase (CDP); assay: STD NMR, binding epitope mapping; settings: [D11]Tris 25 mM pH 7.4, NaCl 100 mM, 278 K; 3 mM ligand, 15 uM binding sites; acceptor site
# [3] = molecular target: T1, cellodextrin phosphorylase (CDP); assay: STD NMR, binding epitope mapping; tr-NOESY; settings: [D11]Tris 25 mM pH 7.4, NaCl 100 mM, 278 K (STD); tr-NOESY 290 K; 3 mM ligand, 15 uM binding sites (STD); acceptor site
compound,measurement,setting,value
OC[C@H]1O[C@@H](O[C@H]2[C@H](O)[C@@H](O)C(O)O[C@@H]2CO)[C@H](O)[C@@H](O)[C@@H]1O (stereo partly drawn) [D-cellobiose],Kd,[1],2200 µM
OC[C@H]1O[C@@H](O[C@H]2[C@H](O)[C@@H](O)[C@H](O[C@H]3[C@H](O)[C@@H](O)C(O)O[C@@H]3CO)O[C@@H]2CO)[C@H](O)[C@@H](O)[C@@H]1O (stereo partly drawn) [D-cellotriose],"STD NMR, binding epitope mapping",[2],D‐cellotriose showed contacts for both the reducing α‐ and β‐glucose rings
OC[C@H]1O[C@@H](O[C@H]2[C@H](O)[C@@H](CO)OC(O)[C@@H]2O)[C@H](O)[C@@H](O)[C@@H]1O (stereo partly drawn) [D-laminaribiose],"STD NMR, binding epitope mapping; tr-NOESY",[3],H2 of the non‐reducing glucose ring received the largest saturation transfer
